From ChEMBL document CHEMBL6182902, “Design, synthesis, and discovery of cinnamoyl amide derivatives as potent NagZ inhibitors with antibacterial activity” (Eur J Med Chem, 2025)
The source made the active and inactive calls. The rule behind the calls is not given here.

What was measured:
[1] = system: Escherichia coli; assay: Inhibition of recombinant N-terminal His-tagged Escherichia coli BL21 NagZ extracted from Escherichia coli BL21 using pNP-GlcNAc as substrate at 100 uM by absorbance based assay relative to control
[2] = Inhibition of recombinant N-terminal His-tagged Escherichia coli BL21 NagZ extracted from Escherichia coli BL21 using pNP-GlcNAc as substrate by absorbance based assay
[3] = Inhibition of recombinant N-terminal His-tagged Escherichia coli BL21 NagZ extracted from Escherichia coli BL21 using different concentrations of substrate pNP-GlcNAc by 4-nitrophenolate ion release based spectrophotometric analysis
[4] = system: Escherichia coli; assay: Binding affinity to CM5 chip-immobilized recombinant N-terminal His-tagged Escherichia coli BL21 NagZ extracted from Escherichia coli BL21 assessed as relative response by SPR analysis
[5] = Binding affinity to CM5 chip-immobilized recombinant N-terminal His-tagged Escherichia coli BL21 NagZ extracted from Escherichia coli BL21 assessed as equilibrium dissociation constant by SPR analysis
[6] = system: Pseudomonas aeruginosa; assay: Synergistic antibacterial activity against Pseudomonas aeruginosa ATCC 27853 assessed as fractional inhibitory concentration index incubated for 18 hrs in presence of imipenem by two-dimensional microdilution checkerboard assay; type: functional
[7] = system: Pseudomonas aeruginosa; assay: Synergistic antibacterial activity against Pseudomonas aeruginosa ATCC 27853 assessed as fractional inhibitory concentration index incubated for 18 hrs in presence of ceftazidime by two-dimensional microdilution checkerboard assay; type: functional
[8] = system: Pseudomonas aeruginosa; assay: Synergistic antibacterial activity against Pseudomonas aeruginosa ATCC 27853 assessed as fold reduction in imipenem MIC incubated for 18 hrs by two-dimensional microdilution checkerboard assay; type: functional
[9] = system: Pseudomonas aeruginosa; assay: Synergistic antibacterial activity against Pseudomonas aeruginosa ATCC 27853 assessed as fold reduction in ceftazidime MIC incubated for 18 hrs by two-dimensional microdilution checkerboard assay; type: functional
[10] = system: Pseudomonas aeruginosa; assay: Synergistic antibacterial activity against Pseudomonas aeruginosa ATCC 27853 infected in female KM mouse assessed as epithelial tissue proliferation in skin at 200 ug/ml applied topically in presence of imipenem measured after 3 days; type: functional, organism-based; conditions: dose 200.0 µg/ml, route top, time 3.0 day
[11] = system: Pseudomonas aeruginosa; assay: Synergistic antibacterial activity against Pseudomonas aeruginosa ATCC 27853 infected in female KM mouse assessed as exudate formation on wound surface at 200 ug/ml applied topically in presence of imipenem measured after 3 days; type: functional, organism-based; conditions: dose 200.0 µg/ml, route top, time 3.0 day
[12] = system: Pseudomonas aeruginosa; assay: Synergistic antibacterial activity against Pseudomonas aeruginosa ATCC 27853 infected in female KM mouse assessed as wound healing rate in skin at 200 ug/ml applied topically measured after 3 days in presence of imipenem (reference value: 36.2 %); type: functional; conditions: dose 200 µg/ml; route top; time 3 day
[13] = system: Pseudomonas aeruginosa; assay: Synergistic antibacterial activity against Pseudomonas aeruginosa ATCC 27853 infected in female KM mouse assessed as wound healing rate in skin at 200 ug/ml applied topically measured after 3 days in presence of ceftazidime (reference value: 36.2 %); type: functional; conditions: dose 200 µg/ml; route top; time 3 day
[14] = system: Pseudomonas aeruginosa; assay: Synergistic antibacterial activity against Pseudomonas aeruginosa ATCC 27853 infected in female KM mouse assessed as increase in wound contraction in skin at 200 ug/ml applied topically measured after 3 days in presence of ceftazidime; type: functional, organism-based; conditions: dose 200.0 µg/ml, route top, time 3.0 day
[15] = system: Pseudomonas aeruginosa; assay: Synergistic antibacterial activity against Pseudomonas aeruginosa ATCC 27853 infected in female KM mouse assessed as wound healing rate in skin at 200 ug/ml applied topically measured after 10 days in presence of imipenem relative to control; type: functional; conditions: dose 200 µg/ml; route top; time 10 day
[16] = system: Pseudomonas aeruginosa; assay: Synergistic antibacterial activity against Pseudomonas aeruginosa ATCC 27853 infected in female KM mouse assessed as wound healing rate in skin at 200 ug/ml applied topically measured after 10 days in presence of ceftazidime relative to control; type: functional; conditions: dose 200 µg/ml; route top; time 10 day

inhibition [1]: 88% | IC50 [2]: 6.4 µM | RU [4]: < 68
Compound: O=C(/C=C/c1ccc(Cl)c(Cl)c1)N[C@@H](Cc1ccc(I)cc1)C(=O)O
Ki [3]: 3.3 µM | Kd [5]: 42.8 µM | fractional inhibitory concentration index (FICI) [6]: 0.375 | fractional inhibitory concentration index (FICI) [7]: 0.375 | fold change (FC) [8]: >4 | fold change (FC) [9]: >4 | Activity [10]: Active | Activity [11]: Active | Activity [12]: 69.4% | Activity [13]: 73.2% | Activity [14]: Active; Activity Higher Than Imipenem And Compound-Ceftazidime Combination | Activity [15]: 93.9% | Activity [16]: 95.7%
